Experimental data from article PMC3531872 (Chemical research in toxicology, 2011).
Read-outs that look alike come from different tables or passages of the source.

Tests used:
[1] = molecular target: T1, Recombinant human P450 1A1 (Homo sapiens, UniProt P04798); assay: N- and C-oxidation by recombinant human P450 1A1; type: in vitro ADME
T1 sequence (P04798 1-512): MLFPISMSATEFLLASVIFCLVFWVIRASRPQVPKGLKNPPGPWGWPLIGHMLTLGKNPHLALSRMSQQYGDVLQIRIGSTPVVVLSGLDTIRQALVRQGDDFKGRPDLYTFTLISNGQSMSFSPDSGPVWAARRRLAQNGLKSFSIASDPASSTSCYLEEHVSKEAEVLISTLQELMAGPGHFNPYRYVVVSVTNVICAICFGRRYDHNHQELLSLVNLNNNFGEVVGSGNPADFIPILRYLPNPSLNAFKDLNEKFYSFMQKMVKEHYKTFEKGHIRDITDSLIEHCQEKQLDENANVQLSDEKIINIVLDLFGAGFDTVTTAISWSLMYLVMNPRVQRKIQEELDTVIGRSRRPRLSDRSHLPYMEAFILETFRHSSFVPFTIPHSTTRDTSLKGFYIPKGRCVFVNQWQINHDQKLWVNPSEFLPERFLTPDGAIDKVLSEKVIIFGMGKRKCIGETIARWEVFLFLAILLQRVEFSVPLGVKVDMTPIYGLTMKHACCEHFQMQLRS

[2] = molecular target: T2, Recombinant human P450 1B1 (Homo sapiens, UniProt Q16678); assay: N- and C-oxidation by recombinant human P450 1B1; type: in vitro ADME
T2 sequence (Q16678 1-543): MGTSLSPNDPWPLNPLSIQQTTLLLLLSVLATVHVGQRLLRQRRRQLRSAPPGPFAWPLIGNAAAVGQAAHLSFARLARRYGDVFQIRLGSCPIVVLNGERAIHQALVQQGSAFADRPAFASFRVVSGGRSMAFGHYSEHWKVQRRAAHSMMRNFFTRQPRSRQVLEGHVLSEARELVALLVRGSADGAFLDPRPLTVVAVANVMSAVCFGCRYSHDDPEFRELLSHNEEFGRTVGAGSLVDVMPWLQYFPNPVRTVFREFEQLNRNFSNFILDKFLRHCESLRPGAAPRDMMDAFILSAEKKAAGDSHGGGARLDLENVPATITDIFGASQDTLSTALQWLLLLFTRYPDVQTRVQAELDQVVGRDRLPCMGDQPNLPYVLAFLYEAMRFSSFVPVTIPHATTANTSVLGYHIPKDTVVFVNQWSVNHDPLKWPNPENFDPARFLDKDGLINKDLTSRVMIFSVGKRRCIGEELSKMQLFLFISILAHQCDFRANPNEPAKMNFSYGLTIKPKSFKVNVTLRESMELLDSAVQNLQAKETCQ

[3] = Plasma clearance of 14C radioactivity in mice; type: in vivo, female C57BL/6J mice
liver DNA = settings: male C57BL/6 mice; 24 h post-treatment; 5 mg/kg; cited from earlier work
rat liver DNA = settings: 24 h following oral dosing with MeIQx (10 mg/kg); cited from earlier work
[4] = tested on: liver, pancreas and colorectal DNA; assay: In vivo DNA binding
[5] = tested on: S. typhimurium strain YG1024; settings: cited from earlier work
[6] = N- and C-oxidation with mouse liver microsomes; type: in vitro ADME, female C57BL/6J mice; settings: female, C57BL/6J, 200 μM, pH 7.6
[7] = N- and C-oxidation with human liver microsomes; type: in vitro ADME; settings: 200 μM, pH 7.6
[8] = tested on: liver, pancreas and colorectal DNA; settings: female, C57BL/6J, mouse, in vivo
mouse liver DNA = settings: in vivo
[9] = tested on: S. typhimurium tester strain TA98; settings: cited from earlier work

Q: What does the source list for `Cc1cnc2ccc3c(nc(N)n3C)c2n1` [MeIQx, 2-Amino-3,8-dimethylimidazo[4,5-f]quinoxaline]?
A: N-oxidation by P450 1A1 (in words) ([1]; recombinant human P450 1A1): low to not detectable; N-oxidation by P450 1B1 (in words) ([2]; recombinant human P450 1B1): low to not detectable; radioactivity cleared from plasma within 48 h ([3]; gavage, 14C-MeIgQx 9.68 mg/kg or 14C-MeIQx 2.13 mg/kg): greater than 95%; time of peak plasma levels in radioactivity ([3]; gavage, 14C-MeIgQx 9.68 mg/kg or 14C-MeIQx 2.13 mg/kg, time points 4, 24, 48 h): 4 h; [14C]-MeIQx bound to liver DNA (liver DNA): about 20 adducts per 10^8 nucleotides; dA-N^6-MeIQx adduct level relative to dG-C8-MeIQx (rat liver DNA): ~ 5%; dG-N^2-MeIQx adduct level relative to dG-C8-MeIQx (rat liver DNA): 30 - 50%; Covalent Binding Index, colon ([4]; Time 4 h): 113 ±119 (μ mol/mol dNp)/(mmol carcinogen/kg bw); Covalent Binding Index, colon ([4]; Time 24 h): 10.4 ± 11.9 (μ mol/mol dNp)/(mmol carcinogen/kg bw); Covalent Binding Index, colon ([4]; Time 48 h): 2.1 ± 0.9 (μ mol/mol dNp)/(mmol carcinogen/kg bw); Covalent Binding Index, liver ([4]; Time 4 h): 27.7 ± 8.3 (μ mol/mol dNp)/(mmol carcinogen/kg bw); Covalent Binding Index, liver ([4]; Time 24 h): 11.5 ± 7.7 (μ mol/mol dNp)/(mmol carcinogen/kg bw); Covalent Binding Index, liver ([4]; Time 48 h): 20.5 ± 8.4 (μ mol/mol dNp)/(mmol carcinogen/kg bw); Covalent Binding Index, pancreas ([4]; Time 4 h): 0.8 ± 0.2 (μ mol/mol dNp)/(mmol carcinogen/kg bw); Covalent Binding Index, pancreas ([4]; Time 24 h): 0.2 ± 0.1 (μ mol/mol dNp)/(mmol carcinogen/kg bw); Covalent Binding Index, pancreas ([4]; Time 48 h): 0.1 ± 0.1 (μ mol/mol dNp)/(mmol carcinogen/kg bw); time of highest level of 14C isotope in colorectal DNA ([4]; colorectal DNA, time points 4, 24, 48 h): 4 h; 14C-isotope associated with liver DNA at 48 h, relative to 4 h ([4]; liver DNA, T 48 h vs 4 h): up to 74%; total [14C]-MeIQx-DNA adduct formation, based upon AMS measurements ([4]; liver, 24 h post treatment, 2.13 mg/kg by gavage): 11.4 ± 7.6 adducts per 10^8 nucleotides; CBI in liver at T4 and 24 h ([4]; liver, T4 and 24 h, range over both HAAs): 7 - 28; 14C-isotope associated with pancreas DNA at 48 h, relative to 4 h ([4]; pancreas DNA, T 48 h vs 4 h): ≤ 25%

Q: For `Cn1c(N)nc2ncc(-c3ccccc3)cc21` [PhIP, 2-amino-1-methyl-6-phenylimidazo[4,5-b]pyridine, reference compound], which mutagenic potency ([5]; S. typhimurium YG1024) is on record?
A: 3,015 rev/μg

Q: Which results are given for `Cc1cnc2cc3nc(N)n(C)c3cc2n1` [MeIgQx, 2-Amino-1,7-dimethylimidazo[4,5-g]quinoxaline]?
A: Estimated C-oxidation rate, HO-MeIg Qx formation [6]: 0.5 ± 0.2 nmol/min/mg microsomal protein; Estimated N-oxidation rate, HONH-MeIg Qx formation [6]: 0.3 ± 0.1 nmol/min/mg microsomal protein; Estimated C-oxidation rate, HO-MeIg Qx formation [7]: 0.1 ± 0.01 nmol/min/mg microsomal protein; Estimated N-oxidation rate, HONH-MeIg Qx formation [7]: 0.4 ± 0.02 nmol/min/mg microsomal protein; rate of N-oxidation [7]: 0.4 nmol/min/mg protein; Estimated C-oxidation rate, HO-MeIg Qx formation ([1]; human, 200 μM, pH 7.6): 6.9 ± 2.4 nmol/min/100 pmol P450; Estimated N-oxidation rate, HONH-MeIg Qx formation ([1]; human, 200 μM, pH 7.6): 14.1 ± 4.9 nmol/min/100 pmol P450; rate of MeIgQx N-oxidation by P450 1A1 relative to P450 1A2 ([1]; human, recombinant enzyme, 200 μM, pH 7.6): ~ 3 fold; Estimated C-oxidation rate, HO-MeIg Qx formation ([2]; human, 200 μM, pH 7.6): 2.5 ± 0.3 nmol/min/100 pmol P450; Estimated N-oxidation rate, HONH-MeIg Qx formation ([2]; human, 200 μM, pH 7.6): 3.9 ± 0.6 nmol/min/100 pmol P450; radioactivity cleared from plasma within 48 h ([3]; female, C57BL/6J, mouse, in vivo, 48 h): greater than 95%; CBI in liver at T4 and 24 h [8]: 7 - 28; time of highest level of 14C isotope in colorectal DNA [8]: 24 h; Covalent Binding Index, colon ([8]; 4 h): 12.0 ± 6.5 (μ mol/mol dNp)/(mmol carcinogen/kg bw); Covalent Binding Index, liver ([8]; 4 h): 21.7 ± 8.6 (μ mol/mol dNp)/(mmol carcinogen/kg bw); Covalent Binding Index, pancreas ([8]; 4 h): 2.4 ± 2.4 (μ mol/mol dNp)/(mmol carcinogen/kg bw); 14C-isotope associated with liver DNA at 24 h, relative to 4 h ([8]; 24 h): 33%; 14C-isotope associated with pancreas DNA at 24 h, relative to 4 h ([8]; 24 h): 44%; Covalent Binding Index, colon ([8]; 24 h): 138 ±114 (μ mol/mol dNp)/(mmol carcinogen/kg bw); Covalent Binding Index, liver ([8]; 24 h): 7.0 ± 3.2 (μ mol/mol dNp)/(mmol carcinogen/kg bw); Covalent Binding Index, pancreas ([8]; 24 h): 1.1 ± 0.6 (μ mol/mol dNp)/(mmol carcinogen/kg bw); 14C-isotope associated with liver DNA at 48 h, relative to 4 h ([8]; 48 h): 27%; 14C-isotope associated with pancreas DNA at 48 h, relative to 4 h ([8]; 48 h): 17%; Covalent Binding Index, colon ([8]; 48 h): 28.7 ± 18.5 (μ mol/mol dNp)/(mmol carcinogen/kg bw); Covalent Binding Index, liver ([8]; 48 h): 5.8 ± 0.6 (μ mol/mol dNp)/(mmol carcinogen/kg bw); Covalent Binding Index, pancreas ([8]; 48 h): 0.2 ± 0.2 (μ mol/mol dNp)/(mmol carcinogen/kg bw); potential dA adduct of MeIgQx ([M+H]+ at m/z 463.2) (mouse liver DNA): no peaks were detected above background level; putative dG-C8-MeIgQx adduct, MS^2 or MS^3 scan stages (mouse liver DNA): not detected; potency in the Ames reversion assay, fold lower than MeIQx [9]: about 4,000 fold; genotoxic potency in YG1024 relative to TA98, fold greater [5]: 16 fold; mutagenic potency, fold weaker than PhIP [5]: about 10 fold
